Laboratory results from publication PMC7377239, “Cardiovascular Effects of Polychlorinated Biphenyls and Their Major Metabolites” (Environmental Health Perspectives, 2020).
Where two headings read alike, the source gives them in different places.

What was measured:
HUVECs = test: High-content imaging cytotoxicity in HUVECs, 24 h; assay type: cell-based, human; conditions: Homo sapiens, HUVEC, 24 h, HUVECs; for viability at 0.01 µM / activity at 0.01 µM / viability at 0.1 µM / activity at 0.1 µM / viability at 1 µM / activity at 1 µM / viability at 10 µM / activity at 10 µM / viability at 100 µM / activity at 100 µM: 0.00 µM = 100.00; for viability at 0.1 µM / activity at 0.1 µM: 0.10 µM; for minimal effective concentration: top concentration 100.00 µM
Protocol: Similar to the cultivation of iCell®-endothelial cells, HUVEC maintenance and experimentation are detailed elsewhere ([Iwata et al. 2017]). Briefly, HUVECs were thawed, seeded, and grown in T75 tissue culture flasks in Medium 199 with EGM™-2 BulletKits™. HUVECs were incubated at regular cell culture conditions, 37°C and 5% CO2 , and passaged every 2–3 d using TrypLE™ Express. To ensure adequate endothelial function, experiments were performed with cells between passages 1 and 5.
Cytotoxicity was assessed in parallel experiments. For iCell®-endothelial cells, 384-well plates were coated with a 30μg/mL fibronectin solution ( 10μL/well ) and incubated for 2 h at RT. iCell®-endothelial cells were dissociated with TrypLE™ Express and prepared into a solution to achieve 750 cells per well and 50μL of total volume. The fibronectin solution was removed from the 384-well plate, and cells were plated. For HUVECs, similar dissociation and the same cell density were used for plating with the exclusion of the fibronectin solution. Cells were incubated at 37°C and 5% CO2 until a monolayer was formed, typically 3–5 d. 2×PCB plates were created with the requisite maintenance medium. Before treatment, the medium in the wells was exchanged to 25μL/well of fresh maintenance medium. 2×PCB chemical solutions ( […] ) were added. After 24 h incubation at 37°C and 5% CO2 , cells were stained with Hoechst 33342, MitoTracker™ Orange, and calcein AM for 20 min before replacing the staining media with FluoroBright DMEM. Cell culture plates were imaged using the ImageXpress® Micro Confocal high-content imaging system (Molecular Devices). Images were acquired at 10× magnification with DAPI, TRITC, or FITC filter (Hoechst 33342, MitoTracker™, or calcein AM, respectively). The multiwavelength cell scoring applications module in MetaXpress™ (Molecular Devices) was used to analyze the images.
(§1) Phenotypic responses were quantitatively assessed using concentration–response modeling as detailed elsewhere ([Sirenko et al. 2017]). Briefly, phenotypic readouts were normalized to vehicle controls and fit to a four-parameter logistic model in R studio software (version 3.1.1; R Development Core Team). Following EPA guidance on dose–response modeling, a cutoff of one standard deviation across means of vehicle control (i.e., 0.5% vol/vol DMSO in cell culture media) wells was applied to determine the point-of-departure (POD) values ([U.S. EPA 2012]). In the absence of a concentration–response, the highest tested concentration (i.e., 100μM ) was assigned as “no observable adverse effect level.” The concentration–response assessment R script, as well as templates for vehicle and concentration–response data, are available as a supplement to Sirenko et al. ([2017]). The ability of physicochemical properties to predict differences in PODs were evaluated by multiregression and mixed-effects modeling using R.

[1] = tested on: iCell cardiomyocytes (human iPSC-derived cardiomyocytes); test: High-content imaging of cytotoxicity and mitochondrial integrity in iPSC-CMs; assay type: cell-based; conditions: Homo sapiens; for viability at 0.01 µM / activity at 0.01 µM / viability at 0.1 µM / activity at 0.1 µM / viability at 1 µM / activity at 1 µM / viability at 10 µM / activity at 10 µM / viability at 100 µM / activity at 100 µM: Cardiomyocyte, 0.00 µM = 100.00; for viability at 0.1 µM / activity at 0.1 µM: 0.10 µM; for minimal effective concentration: iPSC-CM
Protocol: Details on cardiomyocyte cell culture are described in detail elsewhere ([Grimm et al. 2015b]; [Sirenko et al. 2013a]). Briefly, tissue-culture treated 384 well plates were gelatinized with 25μL per well of 0.1% (w/v) gelatin in water for 2 h at 37°C and 5% CO2 . Individual vials of cells were thawed for 4 min in a water bath maintained at 37°C. Thawed cells were resuspended in 10ml plating medium containing 1:500 (vol/vol) penicillin/streptomycin solution at room temperature (RT). Live cell counts for each cell suspension were determined by trypan blue staining and cells were further diluted to provide final cell densities of 2×10^5 viable cells/ml. Thus, 5,000 cells suspended in 25μL media were transferred per well after the gelatin solution had been discarded. Cell culture plates were rested for 30 min at RT before they were incubated for 48 h at 37°C and 5% CO2 . Then, a media exchange with 30μL of fresh maintenance medium containing 1:500 (vol/vol) penicillin/streptomycin solution was performed, and cell media were subsequently changed every 48 h for 12 d. On the experiment day, the medium was completely exchanged with either 25μL (for Ca^2+ flux assay) or 40μL (for imaging) of fresh medium.
Cytotoxicity and effects on mitochondrial integrity of various PCBs and PCB metabolites in induced pluripotent stem cell-CMs (iPSC-CMs) were assessed using high-content cellular imaging in ImageXpress® Micro Confocal (Molecular Devices) as detailed in ([Grimm et al. 2015b]). Cells in 40μL maintenance media were treated with 10μL of 5× chemical solutions to provide test chemicals at final assay concentrations ranging from 0.01 to 100μM . […] Next, sample wells were treated with 50μL equilibrated 2× concentrated staining solution (maintenance medium containing Hoechst 33342, 4μg/mL and MitoTracker™ Orange, 0.4μM ). Microplates were then incubated for 15 min at 37°C and 5% CO2 before cells were washed twice with 30μL maintenance medium. All media were aspirated and discarded, and cells were fixed with […] of a 3.7% formaldehyde solution for 15 min at 37°C and 5% […] . Fixed cells were washed 3× with 25μL PBS before image acquisition using the DAPI (Hoechst 33342) and Cy3 (MitoTracker™ Orange) filters at 10× magnification on the ImageXpress® Micro Confocal high-content confocal microscope (Molecular Devices). The multiwavelength cell scoring applications module in MetaXpress® was used to analyze acquired images.
as §1

[2] = 24 hr, read-out: huvec.cyto.24hr
[3] = 24 hr, read-out: huvec.mito.24hr
[4] = 24 hr, read-out: huvec.mitoint.24hr
[5] = 24 hr, read-out: huvec.nma.24hr
[6] = 24 hrs, read-out: huvec.tc.24hrs

Oc1ccc(O)c(-c2ccc(Cl)cc2)c1 [2',5'-DiOH PCB3]
viability at 0.01 µM (HUVECs; [2]): 84.3%
activity at 0.01 µM (HUVECs; [3]): 83.2%
activity at 0.01 µM (HUVECs; [4]): 99.1%
activity at 0.01 µM (HUVECs; [5]): 101%
viability at 0.1 µM (HUVECs; [2]): 103%
activity at 0.1 µM (HUVECs; [3]): 103%
activity at 0.1 µM (HUVECs; [4]): 112%
activity at 0.1 µM (HUVECs; [5]): 97.2%
viability at 1 µM (HUVECs; [2]): 75%
activity at 1 µM (HUVECs; [3]): 73.6%
activity at 1 µM (HUVECs; [4]): 104%
activity at 1 µM (HUVECs; [5]): 101%
viability at 10 µM (HUVECs; [2]): 57.5%
activity at 10 µM (HUVECs; [3]): 27.6%
activity at 10 µM (HUVECs; [4]): 10.3%
activity at 10 µM (HUVECs; [5]): 96.2%
viability at 100 µM (HUVECs; [2]): 2.82%
activity at 100 µM (HUVECs; [3]): 0%
activity at 100 µM (HUVECs; [4]): 0%
activity at 100 µM (HUVECs; [5]): 83.3%
minimal effective concentration (HUVECs; 24 hr, read-out: huvec.cyto.24hr POD): 0.12 µM
minimal effective concentration (HUVECs; 24 hr, read-out: huvec.mito.24hr POD): 0.13 µM
minimal effective concentration (HUVECs; 24 hr, read-out: huvec.mitoint.24hr POD): 3.51 µM
minimal effective concentration (HUVECs; 24 hr, read-out: huvec.nma.24hr POD): 8.87 µM
viability at 0.01 µM (HUVECs; [6]): 84.5%
viability at 0.1 µM (HUVECs; [6]): 103%
viability at 1 µM (HUVECs; [6]): 75%
viability at 10 µM (HUVECs; [6]): 57.7%
viability at 100 µM (HUVECs; [6]): 89.6%
minimal effective concentration (HUVECs; 24 hrs, read-out: huvec.tc.24hrs POD): 0.12 µM
viability at 0.01 µM ([1]; 1.5 h, read-out: cm.cam.90min): 104%
activity at 0.01 µM ([1]; 1.5 h, read-out: cm.mii.90min): 107%
activity at 0.01 µM ([1]; 1.5 h, read-out: cm.mito.90min): 103%
viability at 0.01 µM ([1]; 1.5 h, read-out: cm.tc.90min): 104%
viability at 0.1 µM ([1]; 1.5 h, read-out: cm.cam.90min): 94.2%
activity at 0.1 µM ([1]; 1.5 h, read-out: cm.mii.90min): 114%
activity at 0.1 µM ([1]; 1.5 h, read-out: cm.mito.90min): 93.9%
viability at 0.1 µM ([1]; 1.5 h, read-out: cm.tc.90min): 94.3%
viability at 1 µM ([1]; 1.5 h, read-out: cm.cam.90min): 100%
activity at 1 µM ([1]; 1.5 h, read-out: cm.mii.90min): 108%
activity at 1 µM ([1]; 1.5 h, read-out: cm.mito.90min): 100%
viability at 1 µM ([1]; 1.5 h, read-out: cm.tc.90min): 100%
viability at 10 µM ([1]; 1.5 h, read-out: cm.cam.90min): 101%
activity at 10 µM ([1]; 1.5 h, read-out: cm.mii.90min): 84.5%
activity at 10 µM ([1]; 1.5 h, read-out: cm.mito.90min): 99.4%
viability at 10 µM ([1]; 1.5 h, read-out: cm.tc.90min): 101%
viability at 100 µM ([1]; 1.5 h, read-out: cm.cam.90min): 0%
activity at 100 µM ([1]; 1.5 h, read-out: cm.mii.90min): 0%
activity at 100 µM ([1]; 1.5 h, read-out: cm.mito.90min): 0%
viability at 100 µM ([1]; 1.5 h, read-out: cm.tc.90min): 0%
viability at 0.01 µM ([1]; 24 h, read-out: cm.cam.24hrs): 84.9%
activity at 0.01 µM ([1]; 24 h, read-out: cm.mii.24hrs): 104%
activity at 0.01 µM ([1]; 24 h, read-out: cm.mito.24hrs): 82.4%
viability at 0.01 µM ([1]; 24 h, read-out: cm.tc.24hrs): 85.7%
viability at 0.1 µM ([1]; 24 h, read-out: cm.cam.24hrs): 100%
activity at 0.1 µM ([1]; 24 h, read-out: cm.mii.24hrs): 110%
activity at 0.1 µM ([1]; 24 h, read-out: cm.mito.24hrs): 101%
viability at 0.1 µM ([1]; 24 h, read-out: cm.tc.24hrs): 100%
viability at 1 µM ([1]; 24 h, read-out: cm.cam.24hrs): 97.7%
activity at 1 µM ([1]; 24 h, read-out: cm.mii.24hrs): 98.1%
activity at 1 µM ([1]; 24 h, read-out: cm.mito.24hrs): 94.2%
viability at 1 µM ([1]; 24 h, read-out: cm.tc.24hrs): 97.9%
viability at 10 µM ([1]; 24 h, read-out: cm.cam.24hrs): 45.5%
activity at 10 µM ([1]; 24 h, read-out: cm.mii.24hrs): 157%
activity at 10 µM ([1]; 24 h, read-out: cm.mito.24hrs): 40.2%
viability at 10 µM ([1]; 24 h, read-out: cm.tc.24hrs): 45.4%
viability at 100 µM ([1]; 24 h, read-out: cm.cam.24hrs): 0%
activity at 100 µM ([1]; 24 h, read-out: cm.mii.24hrs): 0%
activity at 100 µM ([1]; 24 h, read-out: cm.mito.24hrs): 0%
viability at 100 µM ([1]; 24 h, read-out: cm.tc.24hrs): 0%
minimal effective concentration ([1]; 1.5 h, read-out: cm.cam.90min POD): 32.4 µM
minimal effective concentration ([1]; 1.5 h, read-out: cm.mii.90min POD): 7.9 µM
minimal effective concentration ([1]; 1.5 h, read-out: cm.mito.90min POD): 12.7 µM
minimal effective concentration ([1]; 1.5 h, read-out: cm.tc.90min POD): 33.4 µM
minimal effective concentration ([1]; 24 h, read-out: cm.cam.24hrs POD): 1.84 µM
minimal effective concentration ([1]; 24 h, read-out: cm.mii.24hrs POD): 2.28 µM
minimal effective concentration ([1]; 24 h, read-out: cm.mito.24hrs POD): 0.97 µM
minimal effective concentration ([1]; 24 h, read-out: cm.tc.24hrs POD): 1.88 µM
